Laboratory results taken from PubChem BioAssay AID248 (DTP/NCI, 2004).
“And” between values parts separate entries of the source, which are not always exact repeats. Identical values can stand only once. Inconclusive results and toxic doses are left out. No stated cut-off is given here; in the data, active means T/C of 150% or more; inactive means T/C below 125%.

Tested on: L1210 leukemia ip in BDF1 mice, survival T/C
Experiment: NCI In Vivo Anticancer Drug Screen. Data for tumor model L1210 Leukemia (intraperitoneal) in B6D2F1 (BDF1) mice
Settings: endpoint: mean survival time, higher = longer survival
Summary of the method: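 Tumor was transplanted into mice, which were then dosed with test compound or vehicle alone. Survival was recorded for each group, and the treated figure was expressed relative to the control figure.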

[1] = dose: 100.0 mg/kg/injection, schedule: Q01DX009 (ip), vehicle: Klucel (hydroxypropylcellulose) (HPC)
[2] = dose: 100.0 mg/kg/injection, schedule: Q04DX003 (ip), vehicle: Klucel (hydroxypropylcellulose) (HPC)
[3] = dose: 200.0 mg/kg/injection, schedule: Q01DX009 (ip), vehicle: Klucel (hydroxypropylcellulose) (HPC)
[4] = dose: 200.0 mg/kg/injection, schedule: Q04DX003 (ip), vehicle: Klucel (hydroxypropylcellulose) (HPC)
[5] = dose: 400.0 mg/kg/injection, schedule: Q01DX009 (ip), vehicle: Klucel (hydroxypropylcellulose) (HPC)
[6] = dose: 400.0 mg/kg/injection, schedule: Q04DX003 (ip), vehicle: Klucel (hydroxypropylcellulose) (HPC)
[7] = dose: 100.0 mg/kg/injection, schedule: Q04DX003 (ip), vehicle: saline
[8] = dose: 200.0 mg/kg/injection, schedule: Q04DX003 (ip), vehicle: saline
[9] = dose: 400.0 mg/kg/injection, schedule: Q04DX003 (ip), vehicle: saline
[10] = dose: 50.0 mg/kg/injection, schedule: Q04DX002 (ip), vehicle: saline with Tween-80
[11] = dose: 100.0 mg/kg/injection, schedule: Q04DX002 (ip), vehicle: saline with Tween-80
[12] = dose: 100.0 mg/kg/injection, schedule: Q01DX001 (ip), vehicle: saline
[13] = dose: 100.0 mg/kg/injection, schedule: Q01DX009 (ip), vehicle: saline
[14] = dose: 200.0 mg/kg/injection, schedule: Q01DX001 (ip), vehicle: saline
[15] = dose: 200.0 mg/kg/injection, schedule: Q01DX009 (ip), vehicle: saline
[16] = dose: 400.0 mg/kg/injection, schedule: Q01DX001 (ip), vehicle: saline
[17] = dose: 100.0 mg/kg/injection, schedule: Q01DX009 (ip), vehicle: saline with Tween-80
[18] = dose: 100.0 mg/kg/injection, schedule: Q04DX003 (ip), vehicle: saline with Tween-80
[19] = dose: 200.0 mg/kg/injection, schedule: Q04DX003 (ip), vehicle: saline with Tween-80
[20] = dose: 400.0 mg/kg/injection, schedule: Q04DX003 (ip), vehicle: saline with Tween-80

Measured: T/C

NC(=O)c1ccccc1NC(=O)Nc1ccccc1
inactive: [1] 98 % of control | [2] 102 % of control | [3] 94 % of control | [4] 96 % of control | [5] 89 % of control | [6] 94 % of control

COc1ccc(OC)c2ccccc12
inactive: dose: 50.0 mg/kg/injection, schedule: Q01DX005 (ip), vehicle: saline with Tween-80 101 % of control | dose: 100.0 mg/kg/injection, schedule: Q01DX005 (ip), vehicle: saline with Tween-80 101 % of control | dose: 200.0 mg/kg/injection, schedule: Q01DX005 (ip), vehicle: saline with Tween-80 111 % of control | dose: 400.0 mg/kg/injection, schedule: Q01DX005 (ip), vehicle: saline with Tween-80 98 % of control

O=C(/C=C/C(=O)NCc1ccccc1)NCc1ccccc1
inactive: [7] 100 % of control | [8] 103 % of control | [9] 100 % of control

O=C(NCCCOc1ccc([N+](=O)[O-])cc1Cl)Nc1cccc(S(=O)(=O)F)c1
inactive: [1] 92 % of control | [2] 106 % of control | [3] 98 % of control | [4] 103 % of control | [5] 103 % of control | [6] 95 % of control

C=C(C)CC(N)Cc1ccccc1 (centres undefined)
inactive: [10] 89 % of control | [11] 95 % of control and 103 % of control

CC(NC(=O)OCc1ccccc1)C(=O)ON1C(=O)CCC1=O (centres undefined)
inactive: [12] 97 % of control | [13] 95 % of control | [7] 96 % of control | [14] 102 % of control | [15] 93 % of control | [8] 94 % of control | [16] 97 % of control | dose: 400.0 mg/kg/injection, schedule: Q01DX009 (ip), vehicle: saline 88 % of control | [9] 96 % of control

O=C(Cc1ccccc1)C(Cl)c1ccccc1 (centres undefined)
inactive: [12] 94 % of control | [14] 105 % of control

Cc1ccc(S(=O)(=O)c2ccccc2)cc1
inactive: [7] 103 % of control | [8] 91 % of control | [9] 95 % of control

COC(=O)C1(C(=O)OC)C(c2ccccc2)C1(C(=O)OC)C(=O)OC
inactive: dose: 12.5 mg/kg/injection, schedule: Q01DX009 (ip), vehicle: saline with Tween-80 94 % of control | dose: 25.0 mg/kg/injection, schedule: Q01DX009 (ip), vehicle: saline with Tween-80 98 % of control | dose: 50.0 mg/kg/injection, schedule: Q01DX009 (ip), vehicle: saline with Tween-80 94 % of control | [17] 91 % of control

COCCN(CCOC)C(=O)Nc1cccc(Cl)c1
inactive: [11] 90 % of control | dose: 200.0 mg/kg/injection, schedule: Q04DX002 (ip), vehicle: saline with Tween-80 100 % of control | dose: 400.0 mg/kg/injection, schedule: Q04DX002 (ip), vehicle: saline with Tween-80 106 % of control

CCOC(=O)C(=O)c1c[nH]c2ccccc12
inactive: [18] 97 % of control | [19] 97 % of control | [20] 95 % of control

O=C(CC1C(=O)Nc2ccccc21)CC1C(=O)Nc2ccccc21 (centres undefined)
inactive: dose: 100.0 mg/kg/injection, schedule: Q04DX002 (ip), vehicle: Klucel (hydroxypropylcellulose) (HPC) 102 % of control | dose: 200.0 mg/kg/injection, schedule: Q04DX002 (ip), vehicle: Klucel (hydroxypropylcellulose) (HPC) 97 % of control | dose: 400.0 mg/kg/injection, schedule: Q04DX002 (ip), vehicle: Klucel (hydroxypropylcellulose) (HPC) 102 % of control

CC(=O)c1cccc(N2C(=O)CC(=P(c3ccccc3)(c3ccccc3)c3ccccc3)C2=O)c1
inactive: dose: 75.0 mg/kg/injection, schedule: Q01DX001 (ip), vehicle: saline 93 % of control

Cc1ccc([N+](=O)[O-])cc1NC(=O)N(C(C)C)C1CCCCC1
inactive: [1] 106 % of control | [3] 95 % of control | [5] 106 % of control

NC(N)=N/N=C/c1ccc(C(=O)O)cc1
inactive: dose: 15.0 mg/kg/injection, schedule: Q01DX Z (ip), vehicle: saline 103 % of control | dose: 30.0 mg/kg/injection, schedule: Q01DX Z (ip), vehicle: saline 104 % of control | dose: 60.0 mg/kg/injection, schedule: Q01DX Z (ip), vehicle: saline 106 % of control | dose: 120.0 mg/kg/injection, schedule: Q01DX Z (ip), vehicle: saline 110 % of control | dose: 120.0 mg/kg/injection, schedule: Q01DX Z (oral), vehicle: saline 92 % of control | dose: 240.0 mg/kg/injection, schedule: Q01DX Z (ip), vehicle: saline 87 % of control | dose: 240.0 mg/kg/injection, schedule: Q01DX Z (oral), vehicle: saline 90 % of control | dose: 480.0 mg/kg/injection, schedule: Q01DX Z (oral), vehicle: saline 101 % of control | dose: 960.0 mg/kg/injection, schedule: Q01DX Z (oral), vehicle: saline 92 % of control

O=[N+]([O-])c1ccc(Oc2cccc(Cl)c2)c(Cl)c1
inactive: [12] 112 % of control | [14] 109 % of control | [16] 105 % of control

Nc1cc([N+](=O)[O-])cc([N+](=O)[O-])c1Cl
inactive: dose: 100.0 mg/kg/injection, schedule: Q01DX001 (ip), vehicle: Klucel (hydroxypropylcellulose) (HPC) 93 % of control | dose: 200.0 mg/kg/injection, schedule: Q01DX001 (ip), vehicle: Klucel (hydroxypropylcellulose) (HPC) 96 % of control | dose: 400.0 mg/kg/injection, schedule: Q01DX001 (ip), vehicle: Klucel (hydroxypropylcellulose) (HPC) 101 % of control

CCOC(=N)c1cc([N+](=O)[O-])cc([N+](=O)[O-])c1
inactive: [12] 102 % of control | [14] 104 % of control | [16] 102 % of control

Cc1ccnc(NC(=O)Nc2ccc(F)c([N+](=O)[O-])c2)c1
inactive: [1] 91 % of control | [3] 96 % of control | [5] 104 % of control

CNC(=O)Oc1cc2c(cc1C)C(C)(C)CCC2(C)C
inactive: [1] 96 % of control | [3] 96 % of control | [5] 91 % of control

Cc1ccc(S(=O)(=O)OCCc2ccccc2)cc1
inactive: [17] 100 % of control | [18] 102 % of control | dose: 200.0 mg/kg/injection, schedule: Q01DX009 (ip), vehicle: saline with Tween-80 100 % of control | [19] 102 % of control | dose: 400.0 mg/kg/injection, schedule: Q01DX009 (ip), vehicle: saline with Tween-80 96 % of control | [20] 100 % of control

CC(=O)/C=C/C1C(C)=CCCC1(C)C (centres undefined)
inactive: [18] 97 % of control | [19] 92 % of control | [20] 100 % of control

N=C(N)CC(=O)CC(=N)N
inactive: dose: 50.0 mg/kg/injection, schedule: Q01DX009 (ip), vehicle: saline 91 % of control | [13] 91 % of control | [15] 98 % of control

C=CCc1cccc(O)c1O
inactive: dose: 12.5 mg/kg/injection, schedule: Q04DX002 (ip), vehicle: saline with Tween-80 108 % of control | dose: 25.0 mg/kg/injection, schedule: Q04DX002 (ip), vehicle: saline with Tween-80 96 % of control | [10] 108 % of control

C1CCC2C[N-]CCC2C1.C1CCC2C[N-]CCC2C1.C1CCC2C[N-]CCC2C1.C1CCC2C[N-]CCC2C1.[Cl][Rh][Cl] (centres undefined)
inactive: dose: 0.5 mg/kg/injection, schedule: Q01DX009 (ip), vehicle: Klucel (hydroxypropylcellulose) (HPC) 101 % of control | dose: 1.0 mg/kg/injection, schedule: Q01DX009 (ip), vehicle: Klucel (hydroxypropylcellulose) (HPC) 108 % of control | dose: 2.0 mg/kg/injection, schedule: Q01DX009 (ip), vehicle: Klucel (hydroxypropylcellulose) (HPC) 110 % of control | dose: 2.0 mg/kg/injection, schedule: Q01DX009 (ip), vehicle: citric acid 92 % of control | dose: 3.12 mg/kg/injection, schedule: Q01DX009 (ip), vehicle: saline with Tween-80 105 % of control | dose: 3.12 mg/kg/injection, schedule: Q04DX003 (ip), vehicle: saline with Tween-80 105 % of control | dose: 4.0 mg/kg/injection, schedule: Q01DX009 (ip), vehicle: Klucel (hydroxypropylcellulose) (HPC) 103 % of control | dose: 6.25 mg/kg/injection, schedule: Q04DX003 (ip), vehicle: saline with Tween-80 108 % of control
